Laboratory results reported in patent US6737383B1, “Herbicidal oxadiazolidines” (priority 1999, dated 2004).

Assays:
[1] = tested on: corn; assay: Test B pre/postemergence corn; assay type: in vivo, Zea mays
Outline: (§1)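 Herbicidal effect was estimated by eye on a ten-point control scale after plants spent twelve to sixteen days in a greenhouse following soil or foliar treatment. Foliar sprays targeted plants at one to four leaves; all doses were formulated in a non-phytotoxic solvent with surfactant.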

[2] = tested on: morningglory; assay: Test B pre/postemergence morningglory; assay type: in vivo, Ipomoea hederacea
Outline: as §1

[3] = tested on: soybean; assay: Test B pre/postemergence soybean; assay type: in vivo, Glycine max
Outline: as §1

[4] = tested on: rice; assay: Test B flood test rice; assay type: in vivo, Oryza sativa
Outline: (§2)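 Each value is a visual injury score relative to controls, with 10 meaning complete control and 0 no effect. Evaluation took place twelve to sixteen days after the 2-leaf-stage plants were treated and kept in the greenhouse.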

[5] = tested on: surinam grass; assay: Test B pre/postemergence surinam grass; assay type: in vivo, Brachiaria decumbens
Outline: as §1

[6] = tested on: smallflower flatsedge; assay: Test B flood test smallflower flatsedge; assay type: in vivo, Cyperus difformis
Outline: as §2

[7] = tested on: wild oat; assay: Test B pre/postemergence wild oat; assay type: in vivo, Avena fatua
Outline: as §1

[8] = tested on: pigweed; assay: Test B pre/postemergence pigweed; assay type: in vivo, Amaranthus retroflexus
Outline: as §1

[9] = tested on: wheat; assay: Test B pre/postemergence wheat; assay type: in vivo, Triticum aestivum
Outline: as §1

[10] = tested on: giant foxtail; assay: Test B pre/postemergence giant foxtail; assay type: in vivo, Setaria faberii
Outline: as §1

[11] = tested on: blackgrass; assay: Test B pre/postemergence blackgrass; assay type: in vivo, Alopecurus myosuroides
Outline: as §1

[12] = tested on: crabgrass; assay: Test B pre/postemergence crabgrass; assay type: in vivo, Digitaria sanguinalis
Outline: as §1

[13] = tested on: rape; assay: Test B pre/postemergence rape; assay type: in vivo, Brassica napus
Outline: as §1

[14] = tested on: purple nutsedge; assay: Test B pre/postemergence purple nutsedge; assay type: in vivo, Cyperus rotundus
Outline: as §1

[15] = tested on: velvetleaf; assay: Test B pre/postemergence velvetleaf; assay type: in vivo, Abutilon theophrasti
Outline: as §1

[16] = tested on: bamyardgrass; assay: Test B flood test barnyardgrass; assay type: in vivo, Echinochloa crus-galli
Outline: as §2

[17] = tested on: bedstraw; assay: Test B pre/postemergence bedstraw; assay type: in vivo, Galium aparine; settings: Postemergence; for Bedstraw plant response rating: scale of 0 to 10, 0 is no effect, 10 is complete control
Outline: as §1

[18] = tested on: sugar beet; assay: Test B pre/postemergence sugar beet; assay type: in vivo, Beta vulgaris
Outline: as §1

[19] = tested on: cocklebur; assay: Test B pre/postemergence cocklebur; assay type: in vivo, Xanthium strumarium
Outline: as §1

[20] = tested on: duck salad; assay: Test B flood test duck salad; assay type: in vivo, Heteranthera limosa
Outline: as §2

[21] = Postemergence, Rate 62 g/ha, scale of 0 to 10, 0 is no effect, 10 is complete control
[22] = Postemergence, Rate 125 g/ha, scale of 0 to 10 where 0 is no effect and 10 is complete control
[23] = Postemergence, Rate 250 g/ha, scale of 0 to 10, 0 is no effect, 10 is complete control
[24] = Postemergence, Rate 500 g/ha, scale of 0 to 10 where 0 is no effect and 10 is complete control
[25] = Preemergence, Rate 62 g/ha, scale 0 to 10 (0 no effect, 10 complete control)
[26] = Preemergence, Rate 125 g/ha, scale of 0 to 10 where 0 is no effect and 10 is complete control
[27] = Preemergence, Rate 500 g/ha, scale of 0 to 10 where 0 is no effect and 10 is complete control
[28] = Rate 62 g/ha, flood test species, Pre-emergence, visual evaluation after twelve to sixteen days
[29] = Rate 125 g/ha, under heading Pre-emergence, flood test species, visual evaluation after twelve to sixteen days
[30] = Rate 250 g/ha, Pre-emergence (flood test species), scale 0 to 10, 0 is no effect, 10 is complete control
[31] = Rate 500 g/ha, Pre-emergence section of Table B, 0 to 10 scale (0 no effect, 10 complete control)

SMILES: CC(C)N(C(=O)n1oc(=O)n(CC(=O)N(C)C)c1=O)c1ccc(F)cc1 [Compound 586]
- Corn plant response rating [1, 21]: 0
- Plant response rating, Corn [1, 22]: 0
- Corn plant response rating [1, 23]: 2
- Plant response rating, Corn [1, 24]: 3
- Corn plant response rating [1, 25]: 0
- Corn plant response rating [1, 26]: 0
- Corn plant response rating (0 to 10 scale) ([1]; Preemergence, Rate 250 g/ha): 0
- Corn plant response rating [1, 27]: 0
- Morningglory plant response rating [2, 21]: 6
- Plant response rating, Morningglory [2, 22]: 10
- Morningglory plant response rating [2, 23]: 10
- Morningglory plant response rating [2, 25]: 0
- Morningglory plant response rating [2, 26]: 0
- Morningglory plant response rating [2, 27]: 4
- Plant response rating, Soybean [3, 22]: 3
- Soybean plant response rating [3, 23]: 3
- Plant response rating, Soybean [3, 24]: 3
- Soybean plant response rating [3, 25]: 0
- Soybean plant response rating [3, 26]: 0
- Soybean plant response rating [3, 27]: 0
- Plant response rating, Rice (0 to 10 scale, 0 is no effect, 10 is complete control) [4, 28]: 0
- Rice plant response rating (0 to 10 scale, 0 is no effect, 10 is complete control) [4, 29]: 0
- Rice plant response rating [4, 30]: 0
- Rice plant response rating [4, 31]: 0
- B. signalgrass plant response rating [5, 21]: 0
- Plant response rating, B. signalgrass [5, 22]: 0
- B. signalgrass plant response rating [5, 23]: 3
- Plant response rating, B. signalgrass [5, 24]: 7
- B. signalgrass plant response rating [5, 25]: 0
- B. signalgrass plant response rating [5, 26]: 5
- B. signalgrass plant response rating (0 to 10 scale, 0 is no effect, 10 is complete control) ([5]; Preemergence, Rate 250 g/ha): 8
- B. signalgrass plant response rating [5, 27]: 10
- Plant response rating, S. Flatsedge (0 to 10 scale, 0 is no effect, 10 is complete control) [6, 28]: 0
- S. Flatsedge plant response rating (0 to 10 scale, 0 is no effect, 10 is complete control) [6, 29]: 0
- S. Flatsedge plant response rating [6, 30]: 0
- S. Flatsedge plant response rating [6, 31]: 0
- Plant response rating, Wild oats [7, 22]: 0
- Wild oats plant response rating [7, 23]: 0
- Plant response rating, Wild oats [7, 24]: 0
- Wild oats plant response rating [7, 25]: 0
- Wild oats plant response rating [7, 26]: 3
- Wild oats plant response rating [7, 27]: 10
- Plant response rating, Redroot pigweed [8, 22]: 0
- Redroot pigweed plant response rating [8, 23]: 0
- Plant response rating, Redroot pigweed [8, 24]: 2
- Redroot pigweed plant response rating [8, 25]: 0
- Redroot pigweed plant response rating [8, 26]: 8
- Redroot pigweed plant response rating [8, 27]: 10
- Plant response rating, Wheat [9, 22]: 0
- Wheat plant response rating [9, 23]: 0
- Plant response rating, Wheat [9, 24]: 0
- Wheat plant response rating [9, 25]: 0
- Wheat plant response rating [9, 26]: 0
- Wheat plant response rating [9, 27]: 8
- Giant foxtail plant response rating [10, 21]: 2
- Plant response rating, Giant foxtail [10, 22]: 2
- Giant foxtail plant response rating [10, 23]: 8
- Plant response rating, Giant foxtail [10, 24]: 9
- Giant foxtail plant response rating [10, 25]: 9
- Giant foxtail plant response rating [10, 26]: 10
- Giant foxtail plant response rating [10, 27]: 10
- Blackgrass plant response rating [11, 21]: 0
- Plant response rating, Blackgrass [11, 22]: 1
- Blackgrass plant response rating [11, 23]: 3
- Plant response rating, Blackgrass [11, 24]: 8
- Blackgrass plant response rating [11, 25]: 3
- Blackgrass plant response rating [11, 26]: 7
- Blackgrass plant response rating (0 to 10 scale) ([11]; Preemergence, Rate 250 g/ha): 9
- Blackgrass plant response rating [11, 27]: 10
- Crabgrass plant response rating [12, 21]: 2
- Plant response rating, Crabgrass [12, 22]: 3
- Crabgrass plant response rating [12, 23]: 8
- Plant response rating, Crabgrass [12, 24]: 9
- Crabgrass plant response rating [12, 25]: 9
- Crabgrass plant response rating [12, 26]: 9
- Crabgrass plant response rating [12, 27]: 10
- Rape plant response rating [13, 21]: 0
- Plant response rating, Rape [13, 22]: 0
- Rape plant response rating [13, 23]: 0
- Plant response rating, Rape [13, 24]: 0
- Rape plant response rating [13, 25]: 0
- Rape plant response rating [13, 26]: 0
- Rape plant response rating [13, 27]: 4
- Nutsedge plant response rating [14, 21]: 0
- Plant response rating, Nutsedge [14, 22]: 0
- Nutsedge plant response rating [14, 23]: 0
- Plant response rating, Nutsedge [14, 24]: 0
- Nutsedge plant response rating [14, 25]: 0
- Nutsedge plant response rating [14, 26]: 0
- Nutsedge plant response rating [14, 27]: 2
- Plant response rating, Velvetleaf [15, 22]: 0
- Velvetleaf plant response rating [15, 23]: 0
- Plant response rating, Velvetleaf [15, 24]: 1
- Velvetleaf plant response rating [15, 25]: 0
- Velvetleaf plant response rating [15, 26]: 0
- Velvetleaf plant response rating [15, 27]: 7
- Plant response rating, Barnyardgrass (0 to 10 scale, 0 is no effect, 10 is complete control) [16, 28]: 0
- Barnyardgrass plant response rating (0 to 10 scale, 0 is no effect, 10 is complete control) [16, 29]: 0
- Barnyardgrass plant response rating [16, 30]: 0
- Barnyardgrass plant response rating [16, 31]: 0
- Bedstraw plant response rating ([17]; Rate 62 g/ha): 0
- Plant response rating, Bedstraw ([17]; Rate 125 g/ha, scale of 0 to 10 where 0 is no effect and 10 is complete control): 0
- Bedstraw plant response rating ([17]; Rate 250 g/ha): 0
- Plant response rating, Sugarbeets [18, 22]: 0
- Sugarbeets plant response rating [18, 23]: 0
- Plant response rating, Sugarbeets [18, 24]: 0
- Sugarbeets plant response rating [18, 25]: 0
- Sugarbeets plant response rating [18, 26]: 0
- Sugarbeets plant response rating [18, 27]: 8
- Cocklebur plant response rating [19, 21]: 0
- Plant response rating, Cocklebur [19, 22]: 0
- Cocklebur plant response rating [19, 23]: 0
- Plant response rating, Cocklebur [19, 24]: 0
- Cocklebur plant response rating [19, 25]: 0
- Cocklebur plant response rating [19, 26]: 0
- Cocklebur plant response rating (0 to 10 scale) ([19]; Preemergence, Rate 250 g/ha): 0
- Cocklebur plant response rating [19, 27]: 0
- Plant response rating, Ducksalad (0 to 10 scale, 0 is no effect, 10 is complete control) [20, 28]: 0
- Ducksalad plant response rating (0 to 10 scale, 0 is no effect, 10 is complete control) [20, 29]: 0
- Ducksalad plant response rating [20, 30]: 0
- Ducksalad plant response rating [20, 31]: 0
